Laboratory results from patent EP0465096A1, “Plasma cholesterol level lowering composition” (MERCK & CO. INC., priority 1990, dated 1992).
Marks after values point to notes of the source that are not given here.

System: dogs
Assay: Plasma cholesterol lowering in dogs, oral bolus (rapid release) vs 24 h gastric infusion (Example 1)
Type: in vivo
Details: ammonium salt, 10 mg/kg/day for 28 days, vs pre-dosing level
Method: 7-[1,2,6,7,8,8a(R)-hexahydro-2(S),6(R)-dimethyl-8(S)-(2,2-dimethylbutyryloxy)-naphthalenyl-1(S)]-3(R),5(R)-dihydroxyheptanoic acid, an HMG-CoA reductase inhibitor which is the ring opened dihydroxy acid of simvastatin, was administered to dogs as the ammonium salt as either an oral bolus dose (rapid release) or as a continuous gastric infusion over 24 hours (simulated controlled release). In both cases, each dog received a dose of 10 mg/kg/day for 28 days of the above named HMG-CoA reductase inhibitor. Plasma cholesterol was determined throughout the entire study and drug-treatment levels compared to control cholesterol levels (pre-dosing) for each dog. Circulating plasma levels of the above named HMG-CoA reductase inhibitor were determined on Day 16 of each drug dosing period.

SMILES: CCC(C)(C)C(=O)O[C@H]1C[C@@H](C)C=C2C=C[C@H](C)[C@H](CC[C@@H](O)C[C@@H](O)CC(=O)O)[C@H]21 [7-[1,2,6,7,8,8a(R)-hexahydro-2(S),6(R)-dimethyl-8(S)-(2,2-dimethylbutyryloxy)-naphthalenyl-1(S)]-3(R),5(R)-dihydroxyheptanoic acid]
- Mean Maximum Reduction In Plasma Cholesterol (continuous gastric infusion over 24 hours (simulated controlled release), mean ± SD, n = 4 dogs): 60 ± 4.0^b percent
- Mean Maximum Reduction In Plasma Cholesterol (oral bolus dose (rapid release), n = 1 dog): 31^a percent
